Results on 18 compounds are retold here after ChEMBL document CHEMBL1130050, “Novel conformationally extended naphthalene-based inhibitors of farnesyltransferase” (J Med Chem, 1997).

Square brackets hold non-standard residues; d marks the D form. Peptide text beside a SMILES is read from it. Tic = O=C(O)[C@@H]1Cc2ccccc2CN1; NMeM = CN[C@@H](CCSC)C(=O)O; NMeV = CN[C@H](C(=O)O)C(C)C; Nle = CCCC[C@H](N)C(=O)O

Usually IC50 stands for the concentration at which inhibition is half-maximal. Read a low IC50 as greater potency. Broadly, the inhibition is how much of the control response was suppressed. Low readings indicate a weak effect, high ones a strong effect.

Assay [1] addresses T1, Protein farnesyltransferase (Homo sapiens, UniProt P49354+P49356). In words: Ratio of FTase IC50 values compared to compound 5. Format: protein-complex assay.
Assay [2] has as its target T1, Protein farnesyltransferase. In words: Ratio of FTase IC50 values compared to compound 8. The format is protein-complex assay.
Assay [3] has the same target. In words: Inhibition of [3H]FPP incorporation into human Ha-Ras by farnesyltransferase. The format is protein-complex assay.
For assay [4] the target is unchanged. Put plainly: Percent inhibition of Ha-Ras protein processing in THAC (Ha-ras-transformed CCL39) cells at 10 uM. The format is functional.
Assay [5] has the same target. Put plainly: Inhibition of [3H]FPP incorporation into human Ki-Ras by farnesyltransferase. Format: protein-complex assay.

`CSCC[C@H](NCc1cccc2c(NC[C@@H](N)CS)cccc12)C(=O)O`: the Ratio in assay [1] worked out at 54.
As for `CSCC[C@@H](C(=O)O)N(C)C(=O)[C@H](Cc1ccccc1)NC(=O)[C@@H](NC(=O)[C@@H](N)CS)C(C)C` (H-CVF[NMeM]-OH), in assay [2], the Ratio turned out to be 38. This compound also displayed an IC50 in assay [3] of 1400 nM.
Regarding `COC(=O)[C@H](CCSC)NC(=O)c1cccc2cc(NC[C@@H](N)CS)ccc12`, in assay [4], the inhibition was greater than 50%. The compound also came in with an IC50 in assay [5] of 500 nM.
On to `CSCC[C@H](/N=C(\S)c1cccc2c(NC[C@@H](N)CS)cccc12)C(=O)O`, for which the Ratio in assay [1] worked out at 0.9.
As for `CSCC[C@H](NC(=O)c1cccc2c(NC(=O)[C@@H](N)CS)cccc12)C(=O)O`, the inhibition in assay [4] came to 0%.
In the case of `CSCC[C@H](/N=C(\S)[C@H](Cc1ccccc1)NC(=O)[C@@H](NC(=O)[C@@H](N)CS)C(C)C)C(=O)O`, the Ratio in assay [2] was found to be 0.5.
On to `CSCC[C@H](NC(=O)c1cccc2c(NC[C@@H](N)CS)cccc12)C(=O)O`, for which the inhibition in assay [4] was determined as 0%. For the same compound, the Ratio in assay [1] is 1.
In the case of `CSCC[C@H](NC(=S)c1cccc2c(NC[C@@H](N)CS)cccc12)C(=O)O`, half-maximal inhibition in assay [3] (IC50) was put at 4.8 nM.
For the compound `CSCC[C@H](NC(=O)c1cccc2cc(NC[C@@H](N)CS)ccc12)C(=O)O`, in assay [4], the inhibition was determined as 10%. The compound further returned an IC50 in assay [5] of 17.5 nM.
For the compound `CCCC[C@H](NC(=O)c1cccc2c(NC[C@@H](N)CS)cccc12)C(=O)O`, in assay [1], the Ratio came out at 8. For the same compound, in assay [3], the IC50 turned out to be 44 nM.
For `CSCC[C@H](NC(=O)c1cccc2cc(NC(=O)[C@@H](N)CS)ccc12)C(=O)O`, the IC50 in assay [5] stood at 1250 nM; in assay [3], 60 nM.
Take `CSCC[C@H](NC(=O)[C@@H]1Cc2ccccc2CN1C(=O)[C@H](C(C)C)N(C)C(=O)[C@@H](N)CS)C(=O)O` (H-C[NMeV][Tic]M-OH): the inhibition in assay [4] was 0%.
As for `CSCC[C@H](NC(=S)[C@H](Cc1ccccc1)NC(=O)[C@@H](NC(=O)[C@@H](N)CS)C(C)C)C(=O)O`, half-maximal inhibition in assay [3] (IC50) was put at 17 nM.
As to `CCCC[C@H](NC(=O)[C@H](Cc1ccccc1)NC(=O)[C@@H](NC(=O)[C@@H](N)CS)C(C)C)C(=O)O` (H-CVF[Nle]-OH), the Ratio in assay [2] came out at 26. The IC50 in assay [3] stood at 950 nM.
Taken in the same sequence, the figures for `COC(=O)[C@H](CCSC)NC(=O)[C@H](Cc1ccccc1)NC(=O)[C@@H](NC(=O)[C@@H](N)CS)C(C)C` (H-CVFM-OMe) were 92 and 3400 nM.
In the case of `CSCC[C@@H](C(=O)O)N(C)C(=O)c1cccc2c(NC[C@@H](N)CS)cccc12`, the Ratio in assay [1] is 37.5. In assay [3], this compound returned an IC50 of 210 nM.
Take `COC(=O)[C@H](CCSC)NC(=O)c1cccc2c(NC[C@@H](N)CS)cccc12`: the inhibition in assay [4] was found to be 20%. In assay [1], the Ratio is 58. For the same compound, the midpoint of inhibition in assay [3], the IC50, lay at 325 nM.
As to `CSCC[C@H](NC[C@H](Cc1ccccc1)NC(=O)[C@@H](NC(=O)[C@@H](N)CS)C(C)C)C(=O)O`, the Ratio in assay [2] worked out at 60.
